Source: BindingDB's records for doi:10.1016/j.bioorg.2016.06.004 (Nirma University, 2016)

Target: T1, Seed linoleate 13S-lipoxygenase-1 (Glycine max, UniProt P08170)
T1 sequence (P08170 whole entry): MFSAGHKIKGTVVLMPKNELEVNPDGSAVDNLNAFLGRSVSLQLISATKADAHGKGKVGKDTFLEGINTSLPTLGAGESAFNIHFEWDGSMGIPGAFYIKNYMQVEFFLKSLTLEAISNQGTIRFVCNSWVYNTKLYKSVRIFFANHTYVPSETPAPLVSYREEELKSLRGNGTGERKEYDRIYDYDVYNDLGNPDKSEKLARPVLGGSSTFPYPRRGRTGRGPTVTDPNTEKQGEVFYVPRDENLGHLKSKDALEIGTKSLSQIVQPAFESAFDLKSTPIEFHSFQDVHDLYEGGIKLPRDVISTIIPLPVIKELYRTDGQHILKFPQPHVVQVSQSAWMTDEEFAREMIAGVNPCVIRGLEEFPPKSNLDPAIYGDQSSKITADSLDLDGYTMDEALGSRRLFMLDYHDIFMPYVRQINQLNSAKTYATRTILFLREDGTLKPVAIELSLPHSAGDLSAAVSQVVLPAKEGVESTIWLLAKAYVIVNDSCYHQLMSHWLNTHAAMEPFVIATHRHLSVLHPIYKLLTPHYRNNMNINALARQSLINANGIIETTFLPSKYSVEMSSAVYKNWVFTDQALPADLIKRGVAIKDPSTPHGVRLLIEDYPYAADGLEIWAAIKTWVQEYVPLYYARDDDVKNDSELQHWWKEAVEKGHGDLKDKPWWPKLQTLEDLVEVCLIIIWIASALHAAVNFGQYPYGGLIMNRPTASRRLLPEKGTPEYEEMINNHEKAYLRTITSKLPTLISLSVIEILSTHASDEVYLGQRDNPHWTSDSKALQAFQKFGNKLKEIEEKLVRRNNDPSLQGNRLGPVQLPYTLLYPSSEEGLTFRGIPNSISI
Test: In-vitro LOX Inhibition Assay
Settings: pH 9; 25 °C
Protocol: It is determined by kinetic mode of spectro-photometric determination method,which was performed by recording the rate of change in absorbance at 234 nm. It is based on the principle that the increase of absorbance at 234 nm due to formation of 9- and 13- hydroperoxides by LOX with substrate (linoleic acid). […] Briefly, the stock solution of lipoxygenase was prepared by dissolving 10,000 units/ml of Lipoxidase in 200 mM borate buffer, pH 9, and 5 uL of 80 mmol linoleic acid. Six different concentrations of inhibitors were selected, and made for determining the enzyme inhibition activity. Increasing concentrations of inhibitors were added to enzyme solution and kept for 5 min followed by substrate addition and kept at room temperature with stirring for 20 min.

Row | IC50 [nM] | Structure (SMILES)
1 | 2.12 | COc1ccc2nc(NCC(O)COc3ccc4c(C)cc(=O)oc4c3)sc2c1 (stereo not given) [7-(2-hydroxy-3-(6-methoxybenzo[d]thiazol-2-ylamino)propoxy)-4-methyl-2H-chromen-2-one (35)]
2 | 3.24 | Cc1cc(=O)oc2cc(OCC(O)CNc3nc4ccc([N+](=O)[O-])cc4s3)ccc12 (stereo not given) [7-(2-hydroxy-3-(6-nitrobenzo[d]thiazol-2-ylamino)propoxy)-4-methyl-2H-chromen-2-one (31)]
3 | 15.5 | Cc1cc(=O)oc2cc(OCC(O)CNc3nc4cc(Cl)c(Cl)cc4s3)ccc12 (stereo not given) [7-(3-(5,6-dichlorobenzo[d]thiazol-2-ylamino)-2-hydroxypropoxy)-4-methyl-2H-chromen-2-one (34)]
4 | 6.16 | Cc1cc(=O)oc2cc(OCC(O)CNc3nc4cc(Cl)c(F)cc4s3)ccc12 (stereo not given) [7-(3-(5-chloro-6-fluorobenzo[d]thiazol-2-ylamino)-2-hydroxypropoxy)-4-methyl-2H-chromen-2-one (32)]
5 | 2.79 | Cc1cc(=O)oc2cc(OCC(O)CNc3nc4ccc(Cl)cc4s3)ccc12 (stereo not given) [7-(3-(6-chlorobenzo[d]thiazol-2-ylamino)-2-hydroxypropoxy)-4-methyl-2H-chromen-2-one (33)]
